# Assay results taken from patent US12060347B2 (BRISTOL-MYERS SQUIBB COMPANY, priority 2016, dated 2024).
# Where a name gives a salt, the structure may show the parent alone.
# Molecular target: T1, human PAR4 (Homo sapiens, UniProt Q96RI0)
# T1 construct: expressed in transfected cells; host or cells: HEK293 PAR4 Clone 1.2A (BMS Arctic ID 383940)
# T1 sequence (Q96RI0 18-385): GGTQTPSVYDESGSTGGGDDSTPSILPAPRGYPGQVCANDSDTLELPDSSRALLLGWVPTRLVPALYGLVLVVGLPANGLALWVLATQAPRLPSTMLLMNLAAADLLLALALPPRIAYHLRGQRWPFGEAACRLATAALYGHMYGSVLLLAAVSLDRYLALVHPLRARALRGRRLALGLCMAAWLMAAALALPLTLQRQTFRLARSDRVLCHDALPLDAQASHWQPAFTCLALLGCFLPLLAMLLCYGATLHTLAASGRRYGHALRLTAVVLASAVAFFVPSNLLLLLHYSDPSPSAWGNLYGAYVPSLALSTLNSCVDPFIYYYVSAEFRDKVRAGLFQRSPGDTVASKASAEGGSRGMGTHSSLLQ
# Assay: PAR4 FLIPR assay: antagonism of agonist-peptide-induced calcium mobilization in PAR4-expressing HEK293 cells
# Type: cell-based
# Conditions: H-Ala-Phe(4-F)-[…]NH2-induced intracellular calcium mobilization, 11-point curves
row,IC50 [nM],Compound
1,1400,"COc1cc(C(C)(C)O)c2nc(-c3cc(C)cc4nc(OC)cnc34)sc2c1 [Example 627, 2-(6-methoxy-2-(2-methoxy-7-methylquinoxalin-5-yl)benzo[d]thiazol-4-yl)propan-2-ol]"
2,2.3,"COc1cnc2c(-c3nc4c(Cl)c(F)c(OC[C@@H](C)OC(=O)Nc5ccc(CO)nc5)cc4s3)cc(C)cc2n1 [Example 385, (R)-1-((4-chloro-5-fluoro-2-(2-methoxy-7-methylquinoxalin-5-yl)benzo[d]thiazol-6-yl)oxy)propan-2-yl (6-(hydroxymethyl)pyridin-3-yl)carbamate]"
3,2.4,"COc1ccc(NC(=O)OCCOc2cc3sc(-c4cc(C)cc5nc(OC)cnc45)nc3c(Cl)c2F)cn1 [Example 332, 2((4-chloro-5-fluoro-2-(2-methoxy-7-methylquinoxalin-5-yl)benzo[d]thiazol-6-yl)oxy)ethyl (6-methoxypyridin-3-yl)carbamate]"
4,34,"Cc1cc(-c2nc3ccccc3[nH]2)c2ncc(OC(F)F)nc2c1 [Example 47, 5-(1H-benzo[d]imidazol-2-yl)-2-(difluoromethoxy)-7-methylquinoxaline]"
5,8.5,"Cc1cc(-c2nc3c(C)cc(OCCNS(=O)(=O)c4ccc(F)c(F)c4)cc3s2)c2ncc(OC(F)F)nc2c1 [Example 85, N-(2-(2-(2-(difluoromethoxy)-7-methylquinoxalin-5-yl)-4-methylbenzo[d]thiazol-6-yloxy)ethyl)-3,4-difluorobenzenesulfonamide]"
6,4.7,"COc1cnc2c(-c3nc4cc(F)c(O[C@@H](C)[C@@H](C)OC(=O)Nc5cnc(C(=O)NCC(C)(C)O)nc5)nc4s3)cc(C)cc2n1 [Example 751, (2R,3S)-3-((6-fluoro-2-(2-methoxy-7-methylquinoxalin-5-yl)thiazolo[5,4-b]pyridin-5-yl)oxy)butan-2-yl (2-((2-hydroxy-2-methylpropyl)carbamoyl)pyrimidin-5-yl)carbamate]"
7,2.1,"COc1cnc2c(-c3nc4cc(F)c(O[C@@H](C)[C@@H](C)OC(=O)Nc5ccc(N6CCOCC6)nc5)cc4s3)cc(C)cc2n1 [Example 603, (2R,3S)-3-((5-fluoro-2-(2-methoxy-7-methylquinoxalin-5-yl)benzo[d]thiazol-6-yl)oxy)butan-2-yl (6-morpholinopyridin-3-yl)carbamate]"
8,0.8,"CNC(=O)c1ncc(NC(=O)O[C@H](C)[C@H](C)Oc2cc3sc(-c4cc(C)cc5nc(OC)cnc45)nc3cc2F)cn1 [Example 440, (2R,3S)-3-((5-fluoro-2-(2-methoxy-7-methylquinoxalin-5-yl)benzo[d]thiazol-6-yl)oxy)butan-2-yl (2-(methylcarbamoyl)pyrimidin-5-yl)carbamate]"
9,3.2,"COc1cnc2c(-c3nc4cc(F)c(O[C@@H](C)[C@@H](C)OC(=O)Nc5cnc(C)nc5)nc4s3)cc(Cl)cc2c1 [Example 769, (2R,3S)-3-((2-(6-chloro-3-methoxyquinolin-8-yl)-6-fluorothiazolo[5,4-b]pyridin-5-yl)oxy)butan-2-yl (2-methylpyrimidin-5-yl)carbamate]"
10,3.6,"COCc1cnc2c(-c3nc4c(C)cc(O)cc4s3)cc(C)cc2n1 [Example 281, 2-(2-(methoxymethyl)-7-methylquinoxalin-5-yl)-4-methylbenzo[d]thiazol-6-ol]"
11,31,"CCOC(=O)COc1cc(C)c2nc(-c3cc(Cl)cc4nc(OC)cnc34)sc2c1 [Example 250, Ethyl 2-((2-(7-chloro-2-methoxyquinoxalin-5-yl)-4-methylbenzo[d]thiazol-6-yl)oxy) acetate]"
12,4.9,"COc1cnc2c(-c3nc4cc(F)c(O[C@@H](C)[C@@H](C)OC(=O)Nc5cnc(C)nc5)cc4s3)cc(Cl)cc2c1 [Example 645, (2R,3S)-3-((2-(6-chloro-3-methoxyquinolin-8-yl)-5-fluorobenzo[d]thiazol-6-yl)oxy)butan-2-yl (2-methylpyrimidin-5-yl)carbamate]"
13,1.8,"COc1cnc2c(-c3nc4cc(F)c(OC[C@@H](C)OC(=O)Nc5ccc(C(=O)NCC(C)(C)OP(=O)(O)O)nc5)cc4s3)cc(C)cc2n1 [Example 530, (R)-1-((5-fluoro-2-(2-methoxy-7-methylquinoxalin-5-yl)benzo[d]thiazol-6-yl)oxy) propan-2-yl (6-((2-methyl-2-(phosphonooxy)propyl)carbamoyl)pyridin-3-yl)carbamate, TFA]"
14,0.4,"COc1cnc2c(-c3nc4cc(F)c(O[C@@H](C)[C@@H](C)OC(=O)Nc5ccnc(C(=O)NC[C@@H](C)O)c5)cc4s3)cc(C)cc2n1 [Example 452, (2R,3S)-3-((5-fluoro-2-(2-methoxy-7-methylquinoxalin-5-yl)benzo[d]thiazol-6-yl)oxy)butan-2-yl (2-(((R)-2-hydroxypropyl)carbamoyl)pyridin-4-yl)carbamate]"
15,0.8,"CCOc1ccc2nc(-c3cc(C)cc4nc(COC)cnc34)sc2c1 [Example 255, 6-ethoxy-2-(2-(methoxymethyl)-7-methylquinoxalin-5-yl)benzo[d]thiazole]"
16,1,"COc1cnc2c(-c3nc4cc(F)c(O[C@@H](C)[C@@H](C)OC(=O)Nc5cnc(CC(C)(C)O)nc5)cc4s3)cc(C)cc2n1 [Example 577, (2R,3S)-3-((5-fluoro-2-(2-methoxy-7-methylquinoxalin-5-yl)benzo[d]thiazol-6-yl)oxy)butan-2-yl (2-(2-hydroxy-2-methylpropyl)pyrimidin-5-yl)carbamate]"
17,2,"COc1cnc2c(-c3nc4cc(F)c(O[C@@H](C)[C@@H](C)OC(=O)Nc5cncc(C)c5)cc4s3)cc(C)cc2n1 [Example 419, (2R,3S)-3-((5-fluoro-2-(2-methoxy-7-methylquinoxalin-5-yl)benzo[d]thiazol-6-yl)oxy)butan-2-yl (5-methylpyridin-3-yl)carbamate]"
18,20,"Cc1cc(-c2nc3cc(F)c(O[C@@H](C)[C@@H](C)OC(=O)Nc4cnc(C)nc4)cc3s2)c2ncc(N(C)C)nc2c1 [Example 522, (2R,3S)-3-((2-(2-(dimethylamino)-7-methylquinoxalin-5-yl)-5-fluorobenzo[d]thiazol-6-yl)oxy)butan-2-yl (2-methylpyrimidin-5-yl)carbamate]"
19,4.1,"COCc1cnc2c(-c3nc4c(C)cc(OC)cc4s3)cc(OC(F)(F)F)cc2n1 [Example 203, 6-methoxy-2-(2-(methoxymethyl)-7-(trifluoromethoxy)quinoxalin-5-yl)-4-methylbenzo[d] thiazole]"
20,98,"Cc1cc(-c2nc3cccc(OCCOCc4ccccc4)c3s2)c2ncc(OC(F)F)nc2c1 [Example 18, 7-(2-(benzyloxy)ethoxy)-2-(2-(difluoromethoxy)-7-methylquinoxalin-5-yl) benzo[d]thiazole]"
21,2,"COc1cnc2c(-c3nc4c(C)c(F)c(OC)cc4s3)cc(C(C)O)cc2n1 (centres unmarked) [Example 244, 1-(8-(5-fluoro-6-methoxy-4-methylbenzo[d]thiazol-2-yl)-3-methoxyquinoxalin-6-yl) ethanol]"
22,3.5,"COc1cnc2c(-c3nc4cc(F)c(O[C@@H](C)[C@@H](C)OC(=O)Nc5ccc6[nH]c(=O)oc6c5)cc4s3)cc(C)cc2n1 [Example 406, (2R,3S)-3-((5-fluoro-2-(2-methoxy-7-methylquinoxalin-5-yl)benzo[d]thiazol-6-yl)oxy)butan-2-yl (2-oxo-2,3-dihydrobenzo[d]oxazol-6-yl)carbamate]"
23,1.1,"COCc1cnc2c(-c3nc4cc(F)c(OC(C)C)cc4s3)cc(C)cc2n1 [Example 329, 5-fluoro-6-isopropoxy-2-(2-(methoxymethyl)-7-methylquinoxalin-5-yl)benzo[d]thiazole]"
24,14,"COCCOc1cccc2nc(-c3cc(C)cc4nc(OC(F)F)cnc34)sc12 [Example 75, 2-(2-(difluoromethoxy)-7-methylquinoxalin-5-yl)-7-(2-methoxyethoxy)benzo[d]thiazole]"
25,1.7,"COc1cc(C(O)C2(c3ccccc3)CCC2)c2nc(-c3cc(C)cc4nc(OC)cnc34)sc2c1 (centres unmarked) [Example 665, (6-methoxy-2-(2-methoxy-7-methylquinoxalin-5-yl)benzo[d]thiazol-4-yl)(1-phenylcyclobutyl)methanol]"
26,0.3,"COc1cnc2c(-c3nc4cc(F)c(OC[C@@H](C)OC(=O)Nc5ccc(C(=O)NC[C@@H](C)O)nc5)cc4s3)cc(C)cc2n1 [Example 449, (R)-1-((5-fluoro-2-(2-methoxy-7-methylquinoxalin-5-yl)benzo[d]thiazol-6-yl)oxy)propan-2-yl (6-(((R)-2-hydroxypropyl)carbamoyl)pyridin-3-yl)carbamate]"
27,11,"COc1cnc2c(-c3nc4cc(F)c(OCCOC(=O)Nc5ccncc5)cc4s3)cc(C)cc2n1 [Example 342, 2-((5-fluoro-2-(2-methoxy-7-methylquinoxalin-5-yl)benzo[d]thiazol-6-yl)oxy)ethyl pyridin-4-ylcarbamate]"
28,1.5,"COc1cnc2c(-c3nc4cc(F)c(O[C@@H](C)[C@@H](C)OC(=O)Nc5cnc(C)nc5)cc4s3)cc(Cl)cc2n1 [Example 824, (2R,3S)-3-((2-(7-chloro-2-methoxyquinoxalin-5-yl)-5-fluorobenzo[d]thiazol-6-yl)oxy)butan-2-yl (2-methylpyrimidin-5-yl)carbamate]"
29,1.9,"COc1cnc2c(-c3nc4cc(F)c(OC[C@@H](C)OC(=O)Nc5cnc(C)nc5)nc4s3)cc(Cl)cc2c1 [Example 770, (R)-1-((2-(6-chloro-3-methoxyquinolin-8-yl)-6-fluorothiazolo[5,4-b]pyridin-5-yl)oxy)propan-2-yl (2-methylpyrimidin-5-yl)carbamate]"
